Test results published in PubChem BioAssay AID248 (DTP/NCI, 2004).
Where “and” joins values, the source holds several entries; their conditions need not be identical. Equal values may be shown once. Inconclusive results and toxic doses are left out.

System: L1210 leukemia ip in BDF1 mice, survival T/C
Test: NCI In Vivo Anticancer Drug Screen. Data for tumor model L1210 Leukemia (intraperitoneal) in B6D2F1 (BDF1) mice
Settings: endpoint: mean survival time, higher = longer survival
How it was run: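 Survival endpoint. Drug-treated group vs vehicle group, expressed as T divided by C. Tumor passaged by transplantation.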

[1] = dose: 100.0 mg/kg/injection, schedule: Q04DX003 (ip), vehicle: saline with Tween-80
[2] = dose: 200.0 mg/kg/injection, schedule: Q04DX003 (ip), vehicle: saline with Tween-80
[3] = dose: 400.0 mg/kg/injection, schedule: Q04DX003 (ip), vehicle: saline with Tween-80
[4] = dose: 50.0 mg/kg/injection, schedule: Q01DX009 (ip), vehicle: Klucel (hydroxypropylcellulose) (HPC)
[5] = dose: 100.0 mg/kg/injection, schedule: Q01DX009 (ip), vehicle: Klucel (hydroxypropylcellulose) (HPC)
[6] = dose: 100.0 mg/kg/injection, schedule: Q01DX009 (ip), vehicle: saline
[7] = dose: 100.0 mg/kg/injection, schedule: Q04DX003 (ip), vehicle: Klucel (hydroxypropylcellulose) (HPC)
[8] = dose: 200.0 mg/kg/injection, schedule: Q01DX009 (ip), vehicle: Klucel (hydroxypropylcellulose) (HPC)
[9] = dose: 200.0 mg/kg/injection, schedule: Q01DX009 (ip), vehicle: saline
[10] = dose: 200.0 mg/kg/injection, schedule: Q04DX003 (ip), vehicle: Klucel (hydroxypropylcellulose) (HPC)
[11] = dose: 400.0 mg/kg/injection, schedule: Q01DX009 (ip), vehicle: saline
[12] = dose: 400.0 mg/kg/injection, schedule: Q04DX003 (ip), vehicle: Klucel (hydroxypropylcellulose) (HPC)
[13] = dose: 100.0 mg/kg/injection, schedule: Q01DX009 (ip), vehicle: saline sonified
[14] = dose: 100.0 mg/kg/injection, schedule: Q04DX003 (ip), vehicle: saline sonified
[15] = dose: 200.0 mg/kg/injection, schedule: Q01DX009 (ip), vehicle: saline sonified
[16] = dose: 200.0 mg/kg/injection, schedule: Q04DX003 (ip), vehicle: saline sonified
[17] = dose: 400.0 mg/kg/injection, schedule: Q04DX003 (ip), vehicle: saline sonified
[18] = dose: 100.0 mg/kg/injection, schedule: Q01DX001 (ip), vehicle: saline
[19] = dose: 200.0 mg/kg/injection, schedule: Q01DX001 (ip), vehicle: saline
[20] = dose: 400.0 mg/kg/injection, schedule: Q01DX001 (ip), vehicle: saline
[21] = dose: 100.0 mg/kg/injection, schedule: Q04DX003 (ip), vehicle: saline
[22] = dose: 200.0 mg/kg/injection, schedule: Q04DX003 (ip), vehicle: saline

SMILES: O=NN(CCCl)C(=O)NC1[C@H](O)CCC[C@@H]1O (some centres not stated)
- T/C (dose: 2.6 mg/kg/injection, schedule: Q01DX001 (ip), vehicle: saline): 228 % of control
- T/C (dose: 4.0 mg/kg/injection, schedule: Q01DX001 (ip), vehicle: saline): 385 % of control
- T/C (dose: 6.0 mg/kg/injection, schedule: Q01DX001 (ip), vehicle: saline): 455 % of control
- T/C (dose: 9.0 mg/kg/injection, schedule: Q01DX001 (ip), vehicle: saline): 505 % of control
- T/C (dose: 14.0 mg/kg/injection, schedule: Q01DX001 (ip), vehicle: saline): 340 % of control and 502 % of control
- T/C (dose: 22.0 mg/kg/injection, schedule: Q01DX001 (ip), vehicle: saline): 256 % of control and 309 % of control

SMILES: O=S1(=O)CCCC1C(O)(c1ccccc1)c1ccccc1 (configuration not stated)
- T/C [1]: 97 % of control
- T/C [2]: 92 % of control
- T/C [3]: 94 % of control

SMILES: CC(=O)NC(CC(=O)O)C(=O)O (configuration not stated)
- T/C [4]: 97 % of control
- T/C (dose: 50.0 mg/kg/injection, schedule: Q04DX002 (ip), vehicle: saline): 107 % of control
- T/C [5]: 105 % of control
- T/C [6]: 107 % of control
- T/C (dose: 100.0 mg/kg/injection, schedule: Q04DX002 (ip), vehicle: saline): 107 % of control
- T/C [7]: 90 % of control
- T/C [8]: 101 % of control
- T/C [9]: 113 % of control
- T/C (dose: 200.0 mg/kg/injection, schedule: Q04DX002 (ip), vehicle: saline): 98 % of control
- T/C [10]: 87 % of control
- T/C [11]: 102 % of control
- T/C [12]: 97 % of control

SMILES: c1ccc(CN2CCCCC2)nc1
- T/C (dose: 10.0 mg/kg/injection, schedule: Q01DX009 (ip), vehicle: Klucel (hydroxypropylcellulose) (HPC)): 103 % of control
- T/C (dose: 10.0 mg/kg/injection, schedule: Q04DX003 (ip), vehicle: Klucel (hydroxypropylcellulose) (HPC)): 92 % of control
- T/C (dose: 20.0 mg/kg/injection, schedule: Q01DX009 (ip), vehicle: Klucel (hydroxypropylcellulose) (HPC)): 91 % of control
- T/C (dose: 20.0 mg/kg/injection, schedule: Q04DX003 (ip), vehicle: Klucel (hydroxypropylcellulose) (HPC)): 97 % of control
- T/C (dose: 40.0 mg/kg/injection, schedule: Q04DX003 (ip), vehicle: Klucel (hydroxypropylcellulose) (HPC)): 97 % of control

SMILES: N#Cc1cnn2c(=O)[nH]cnc12
- T/C [13]: 95 % of control
- T/C [14]: 93 % of control
- T/C [15]: 91 % of control
- T/C [16]: 101 % of control
- T/C [17]: 95 % of control

SMILES: NCCCCC(=O)NC(CCCCNC(=O)OCc1ccccc1)C(=O)O (configuration not stated)
- T/C [18]: 102 % of control
- T/C [19]: 107 % of control
- T/C [20]: 105 % of control

SMILES: CC1CCC(C)OCO1 (configuration not stated)
- T/C (dose: 50.0 mg/kg/injection, schedule: Q01DX009 (ip), vehicle: acetone): 97 % of control
- T/C (dose: 100.0 mg/kg/injection, schedule: Q01DX009 (ip), vehicle: acetone): 98 % of control
- T/C (dose: 200.0 mg/kg/injection, schedule: Q01DX009 (ip), vehicle: acetone): 88 % of control

SMILES: CC1CCCC2OC(=O)C(C(N)=O)C12 (configuration not stated)
- T/C [18]: 95 % of control
- T/C [19]: 100 % of control
- T/C [20]: 97 % of control

SMILES: N#Cc1cccc(N)c1
- T/C [18]: 109 % of control
- T/C [21]: 100 % of control
- T/C [22]: 94 % of control
- T/C [20]: 88 % of control
- T/C (dose: 400.0 mg/kg/injection, schedule: Q04DX003 (ip), vehicle: saline): 93 % of control

SMILES: CCOC(=O)C1CSCC1=O (configuration not stated)
- T/C (dose: 25.0 mg/kg/injection, schedule: Q01DX009 (ip), vehicle: water): 97 % of control
- T/C (dose: 50.0 mg/kg/injection, schedule: Q01DX009 (ip), vehicle: water): 90 % of control
- T/C (dose: 100.0 mg/kg/injection, schedule: Q01DX009 (ip), vehicle: water): 104 % of control

SMILES: O=C(Nc1ncn[nH]1)C(F)(F)F
- T/C [18]: 103 % of control
- T/C [19]: 103 % of control
- T/C [20]: 92 % of control

SMILES: CCNC(C)(C)C(SSS)c1cccs1 (configuration not stated)
- T/C [13]: 96 % of control
- T/C [14]: 91 % of control
- T/C [15]: 94 % of control
- T/C [16]: 87 % of control
- T/C (dose: 400.0 mg/kg/injection, schedule: Q01DX009 (ip), vehicle: saline sonified): 88 % of control
- T/C [17]: 89 % of control

SMILES: O=c1cc(Nc2ccccc2Cl)[nH]c(=O)[nH]1
- T/C [1]: 104 % of control
- T/C [2]: 98 % of control
- T/C [3]: 95 % of control

SMILES: Oc1ccc(Br)cc1Sc1cc(Br)ccc1O
- T/C (dose: 100.0 mg/kg/injection, schedule: Q01DX001 (ip), vehicle: carboxymethylcellulose (CMC)): 100 % of control
- T/C [18]: 97 % of control
- T/C (dose: 200.0 mg/kg/injection, schedule: Q01DX001 (ip), vehicle: carboxymethylcellulose (CMC)): 103 % of control
- T/C [19]: 95 % of control
- T/C (dose: 400.0 mg/kg/injection, schedule: Q01DX001 (ip), vehicle: carboxymethylcellulose (CMC)): 95 % of control
- T/C [20]: 95 % of control

SMILES: O=C(O)CCC(=O)O
- T/C (dose: 10.0 mg/kg/injection, schedule: Q01DX009 (ip), vehicle: saline): 103 % of control and 101 % of control
- T/C (dose: 20.0 mg/kg/injection, schedule: Q01DX009 (ip), vehicle: saline): 100 % of control and 103 % of control
- T/C (dose: 31.25 mg/kg/injection, schedule: Q01DX015 (ip), vehicle: water): 96 % of control
- T/C (dose: 40.0 mg/kg/injection, schedule: Q01DX009 (ip), vehicle: saline): 97 % of control
- T/C (dose: 62.5 mg/kg/injection, schedule: Q01DX015 (ip), vehicle: water): 89 % of control
- T/C (dose: 62.5 mg/kg/injection, schedule: Q01DX Z (ip), vehicle: water): 95 % of control and 91 % of control
- T/C (dose: 80.0 mg/kg/injection, schedule: Q01DX009 (ip), vehicle: saline): 97 % of control and 99 % of control
- T/C [18]: 96 % of control
- T/C [6]: 97 % of control and 102 % of control and 92 % of control
- T/C (dose: 125.0 mg/kg/injection, schedule: Q01DX015 (ip), vehicle: water): 96 % of control and 87 % of control
- T/C (dose: 125.0 mg/kg/injection, schedule: Q01DX Z (ip), vehicle: water): 91 % of control and 88 % of control
- T/C (dose: 160.0 mg/kg/injection, schedule: Q01DX009 (ip), vehicle: saline): 93 % of control and 99 % of control
- T/C [19]: 102 % of control
- T/C [9]: 94 % of control and 97 % of control and 105 % of control
- T/C (dose: 250.0 mg/kg/injection, schedule: Q01DX001 (ip), vehicle: water): 100 % of control and 91 % of control
- T/C (dose: 250.0 mg/kg/injection, schedule: Q01DX015 (ip), vehicle: water): 93 % of control
- T/C (dose: 250.0 mg/kg/injection, schedule: Q01DX Z (ip), vehicle: water): 94 % of control and 100 % of control
- T/C [20]: 107 % of control
- T/C [11]: 105 % of control
- T/C (dose: 500.0 mg/kg/injection, schedule: Q01DX001 (ip), vehicle: water): 100 % of control
- T/C (dose: 500.0 mg/kg/injection, schedule: Q01DX Z (ip), vehicle: water): 94 % of control and 101 % of control

SMILES: CCCC1(CC(C)CC)C(=O)NC(=O)NC1=O (configuration not stated)
- T/C (dose: 75.0 mg/kg/injection, schedule: Q01DX001 (ip), vehicle: saline): 100 % of control
- T/C (dose: 150.0 mg/kg/injection, schedule: Q01DX001 (ip), vehicle: saline): 96 % of control
- T/C (dose: 300.0 mg/kg/injection, schedule: Q01DX001 (ip), vehicle: saline): 98 % of control

SMILES: COc1ccc(C=O)c(Br)c1O
- T/C [5]: 103 % of control
- T/C [7]: 104 % of control
- T/C [8]: 97 % of control
- T/C [10]: 103 % of control
- T/C (dose: 400.0 mg/kg/injection, schedule: Q01DX009 (ip), vehicle: Klucel (hydroxypropylcellulose) (HPC)): 97 % of control
- T/C [12]: 101 % of control

SMILES: CCOc1ccc2nc(N)sc2c1
- T/C [4]: 94 % of control
- T/C [5]: 110 % of control
- T/C [21]: 99 % of control
- T/C [8]: 111 % of control
- T/C [22]: 89 % of control

SMILES: O=C1CCCCCCCCCCC1Br (configuration not stated)
- T/C (dose: 100.0 mg/kg/injection, schedule: Q01DX009 (ip), vehicle: saline with Tween-80): 110 % of control
- T/C [1]: 92 % of control
- T/C (dose: 200.0 mg/kg/injection, schedule: Q01DX009 (ip), vehicle: saline with Tween-80): 95 % of control
- T/C [2]: 87 % of control
- T/C (dose: 400.0 mg/kg/injection, schedule: Q01DX009 (ip), vehicle: saline with Tween-80): 87 % of control
- T/C [3]: 92 % of control
